Patent US10870713B2, “Procatalyst and polymerization process using the same” (Dow Global Technologies LLC, priority 2015, dated 2020)

Experiments:
[1] = Solubility testing of procatalysts in aliphatic hydrocarbon solvents; assay type: physicochemical
Protocol: Hexanes (10 mL) was added to this material and the solution was allowed to settle overnight. 5.03 grams of the clear supernatant hexanes was removed from the vial, then the hexanes was removed from this clear solution to leave behind 205 mg of product.
Hexanes (10 mL) was added to this material and the solution was allowed to settle overnight. 5.1 grams of the clear supernatant hexanes was removed from the vial, then the hexanes was removed from this clear solution to leave behind 140 mg of product.
About 950 mg of pre-catalyst used. Added ISOPAR-E (40 mL). Swirled solution then allowed insoluble material to settle to the bottom of the jar overnight. Removed 5.06 grams of ISOPAR-E solution into a vial. Solvent was removed and 120 mg of pre-catalyst was obtained.
To 72.3 mg of the solid in a vial was added 0.9 mL of ISOPAR E. The solution was stirred for about 1 h. The mixture was filtered and the solution was weighted (0.2934 g).
A 20-mL vial was charged with 82.0 mg of the Hf-complex and 0.8 mL of ISOPAR E. The mixture was stirred for 2 h and it was filtered via syringe filter. The colorless solution was weight and then concentrated under vacuum for 3 h. The white solid was weight to obtained 0.0217 g for a 6.2 w/w % solubility.
To the solid was added 0.2198 g of ISOPAR E and stirred for 1 hour. The solid completely dissolved to indicate a 9.5 wt % solubility in ISOPAR E.
To the Hf-complex was added 4 mL of hexane, and the solution was stirred for 4 hours. The solution was filtered via syringe to provide a weight of 2.0638 g. This solution was concentrated under vacuum to afford 0.3228 g of the solid 17 indicative of a 15.6 wt % solubility in hexanes. […]
Solubility was determined by either first forming a saturated solution of the procatalyst in one or more of the solvents as shown in Table 1. […] A portion of the clear supernatant is removed, and the mass is recorded. […] The mass of the resulting procatalyst that was in solution is recorded, allowing for calculation of a w/w % solubility in the indicated solvent. […]

[2] = Batch polymerization of ethylene and 1-octene in a Parr reactor (catalyst efficiency); conditions: reactor 147° C.; ISOPAR-E 1320 g; 1-octene 250 g; ethylene 410 psi; 10 min; procatalyst:activator 1:1.2; procatalyst:MMAO 1:50
Source text: The procatalysts shown above were used to polymerize ethylene and 1-octene in a Parr batch polymerization reactor. All feeds were passed through columns of alumina and Q-5 catalyst (available from Engelhard Chemicals Inc.) prior to introduction into the polymerization reactor. Procatalyst and activator solutions were handled in a glove box under nitrogen atmosphere prior to addition to the polymerization reactor.
Table 2 illustrates the batch polymerizations results for each of C1 and 11-12 under the following conditions: reactor temperature: 147° C.; ISOPAR-E: 1320 g; 1-octene: 250 g; ethylene pressure: 410 psi; Run time: 10 min; procatalyst to activator ratio is 1:1.2; activator=[HNMe(C18H37)2][B(C6F5)4]; procatalyst to MMAO ratio is 1:50; […]
The catalyst efficiency is calculated by dividing the number of grams of the polyolefin copolymer prepared by the total number of grams of metal M of ingredient (a) employed (i.e., metal M of the at least one metal-ligand complex of formula (I)) (i.e., catalyst efficiency=g polyolefin copolymer prepared/g metal M of metal-ligand complex(es) of formula (I) employed).

SMILES: Cc1cc2c(c(-n3c4ccccc4c4ccccc43)c1)[O][Hf-2]13([CH3])([CH3])[O]c4c(cc(C)cc4-n4c5ccccc5c5ccccc54)-c4ccccc4[O+]1C[C@@H]1CCCCC1C[O+]3c1ccccc1-2 (stereo partly shown) [Procatalyst C1]
- wt/wt % Solubility, ISOPAR-E ([1]; solvent ISOPAR-E): 1.2 wt/wt %
- wt/wt % Solubility, Hexanes ([1]; solvent hexanes): 0.5 wt/wt %
- wt/wt % Solubility, Methylcyclohexane ([1]; solvent methylcyclohexane): 1.7 wt/wt %
- Efficiency [2]: 826,377 g polyolefin copolymer prepared/g metal M
